Laboratory results reported in publication PMC7756341, “Liposomal FRET Assay Identifies Potent Drug‐Like Inhibitors of the Ceramide Transport Protein (CERT)” (Chemistry (Weinheim an Der Bergstrasse, Germany), 2020).
Several values for one entry are separate records, joined by “and”; a condition that tells them apart may be missing. Equal values may be shown once.

Legend:
HeLa cells [1] = assay: Sphingolipid content of treated HeLa cells by quantitative mass spectrometry; type: cell-based; conditions: for Cer16 / Cer18 / Cer20 / Cer22 / Cer24 / Cer24:1 / Cer total / S1P / SM16 / SM18 / SM20 / SM22 / SM24 / SM24:1 / SM total / Sph / ratio total SM/Cer: HeLa, 42h, single replicates; for Cer16 / Cer18 / Cer20 / Cer22 / Cer24 / Cer24:1 / Cer total / S1P / SM16 / SM18 / SM20 / SM22 / SM24 / SM24:1 / SM total / Sph: 500.000 cells per sample
Outline: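 HeLa cells were plated in six-well plates at 177000 cells per well in DMEM containing 4mM L-glutamine, 10% FBS and 1% Penicillin-Streptomycin, then exposed to inhibitor. Harvested cells were adjusted to 500.000 per sample, extracted with methanol/chloroform (2:1) containing Cer17 and d31-SM16 internal standards, and quantified for ceramides and sphingomyelins by C8 reversed-phase HPLC coupled to ESI+ triple-quadrupole MS/MS.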

HeLa cells [2] = assay: Cellular localization of BODIPY-ceramide by confocal microscopy; type: cell-based; conditions: 10 µM inhibitor, 2 h
Protocol: 5.1 Cellular Localization of BODIPY-Ceramide
HeLa cells were seeded in 8 well chamber slides (ibidi µ-Slide 8 Well) in RPMI 1640 medium supplemented with 10% (v/v) heat‐inactivated FCS, 1 mM sodium pyruvate and 2 mM L-glutamine at 37 °C and 5% (v/v) CO2 in a humidified incubator. The day after, cells were incubated with inhibitors for 2 h at a concentration of 10 µM or left untreated by replacing the medium with fresh medium supplemented with the respective inhibitors. After 2 h of incubation, BODIPY FL C5-ceramide (Thermo Fisher) was added to a final concentration of 0,25 µM and imaging was immediately done using an LSM 780 laser scanning confocal microscope (Carl Zeiss). No additional wash steps were performed. After 1 h of incubation, DNA was counterstained using Hoechst 33342. For quantification of BODIPY-Ceramide trafficking, cells were transfected with pECFP-GalT the day before inhibitor incubation for the expression of an eCFP fusion of the human galactosyltransferase (GalT; amino acids 1-60), which localizes at the Golgi apparatus. After incubation with the respective inhibitors (see above), cells were imaged at 30 min post addition of BODIPY FL C5-ceramide. Mean BODIPY intensities of regions of interest surrounding eCFP-GalT-positive Golgi stacks were measured (40 cells per biological replicate, 4 biological replicates in total) using ImageJ software (Rasband, W.S., ImageJ, U. S. National Institutes of Health, Bethesda, Maryland, USA, https://imagej.nih.gov/ij/, 1997-2018) and divided by the total BODIPY intensity detected in the field of view. Quantification (Fig 10B) is expressed as normalized intensity ratio (GA/total).
Figure S10. A Uptake of BODIPY FL C5-ceramide to HeLa cells assessed by normalized fluorescence intensity B Distribution of BODIPY FL C5-ceramide by normalized fluorescence […]
(1 picture or pasted object on this page, not shown here)
Figure S11. BODIPY-Ceramide trafficking. Confocal images showing distribution of BODIPY FL C5-ceramide (green) and Golgi apparatus costaining (eCFP-GalT; blue) in HeLa cells pretreated with 10 µM of respective inhibitors or left untreated. Figures show representative images (n = 4 biological replicates with 40 cells per biological replicate); scale bars, 10 µm.

CC1=NN(c2ccc(C)c(C)c2)C(=O)/C1=N\Nc1cccc(-c2cccc(C(=O)O)c2)c1O [17C9, Eltrombopag]
effect on SM/Cer rate (HeLa cells [1]; HeLa cells): dramatically increased | effect on total sphingomyelin (HeLa cells [1]; HeLa cells, 48 hours, serum-reduced medium): no significant changes | Cer16 (HeLa cells [1]; 1 µM): 34,40 pmol/sample and 29,98 pmol/sample and 31,42 pmol/sample | Cer18 (HeLa cells [1]; 1 µM): 3,09 pmol/sample and 3,68 pmol/sample and 2,62 pmol/sample | Cer20 (HeLa cells [1]; 1 µM): 0,85 pmol/sample and 3,45 pmol/sample and 0,80 pmol/sample | Cer22 (HeLa cells [1]; 1 µM): 6,25 pmol/sample and 5,55 pmol/sample and 6,14 pmol/sample | Cer24 (HeLa cells [1]; 1 µM): 18,45 pmol/sample and 16,72 pmol/sample and 19,49 pmol/sample | Cer24:1 (HeLa cells [1]; 1 µM): 39,87 pmol/sample and 35,52 pmol/sample and 38,79 pmol/sample | Cer total (HeLa cells [1]; 1 µM): 102,91 pmol/sample and 96,34 pmol/sample and 97,82 pmol/sample | S1P (HeLa cells [1]; 1 µM): 1,15 pmol/sample and 1,32 pmol/sample and 1,00 pmol/sample | SM16 (HeLa cells [1]; 1 µM): 1737,34 pmol/sample and 1866,45 pmol/sample and 1725,36 pmol/sample | SM18 (HeLa cells [1]; 1 µM): 50,83 pmol/sample and 50,55 pmol/sample and 45,45 pmol/sample | SM20 (HeLa cells [1]; 1 µM): 17,12 pmol/sample and 16,70 pmol/sample and 15,18 pmol/sample | SM22 (HeLa cells [1]; 1 µM): 108,33 pmol/sample and 106,97 pmol/sample and 93,72 pmol/sample | SM24 (HeLa cells [1]; 1 µM): 172,22 pmol/sample and 163,43 pmol/sample and 147,49 pmol/sample | SM24:1 (HeLa cells [1]; 1 µM): 788,48 pmol/sample and 772,38 pmol/sample and 712,32 pmol/sample | SM total (HeLa cells [1]; 1 µM): 2874,32 pmol/sample and 2976,47 pmol/sample and 2739,52 pmol/sample | Sph (HeLa cells [1]; 1 µM): 3,11 pmol/sample and 2,70 pmol/sample and 4,01 pmol/sample | ratio total SM/Cer (HeLa cells [1]; 1 µM): 29,4 and 28,9 and 28,4 | Cer16 (HeLa cells [1]; 2.5 µM): 32,36 pmol/sample and 33,19 pmol/sample and 28,45 pmol/sample | Cer18 (HeLa cells [1]; 2.5 µM): 3,43 pmol/sample and 3,27 pmol/sample and 2,51 pmol/sample | Cer20 (HeLa cells [1]; 2.5 µM): 2,29 pmol/sample and 1,23 pmol/sample and 0,90 pmol/sample | Cer22 (HeLa cells [1]; 2.5 µM): 6,89 pmol/sample and 6,59 pmol/sample and 5,14 pmol/sample | Cer24 (HeLa cells [1]; 2.5 µM): 19,23 pmol/sample and 20,44 pmol/sample and 16,88 pmol/sample | Cer24:1 (HeLa cells [1]; 2.5 µM): 39,53 pmol/sample and 38,37 pmol/sample and 33,82 pmol/sample | Cer total (HeLa cells [1]; 2.5 µM): 103,73 pmol/sample and 103,08 pmol/sample and 87,70 pmol/sample | S1P (HeLa cells [1]; 2.5 µM): 1,23 pmol/sample and 1,05 pmol/sample and 1,02 pmol/sample | SM16 (HeLa cells [1]; 2.5 µM): 1702,42 pmol/sample and 1763,99 pmol/sample and 1597,48 pmol/sample | SM18 (HeLa cells [1]; 2.5 µM): 47,65 pmol/sample and 51,14 pmol/sample and 44,81 pmol/sample | SM20 (HeLa cells [1]; 2.5 µM): 15,77 pmol/sample and 16,69 pmol/sample and 14,30 pmol/sample | SM22 (HeLa cells [1]; 2.5 µM): 97,64 pmol/sample and 104,36 pmol/sample and 90,89 pmol/sample | SM24 (HeLa cells [1]; 2.5 µM): 148,54 pmol/sample and 158,37 pmol/sample and 140,98 pmol/sample | SM24:1 (HeLa cells [1]; 2.5 µM): 659,70 pmol/sample and 706,74 pmol/sample and 726,62 pmol/sample | SM total (HeLa cells [1]; 2.5 µM): 2548,15 pmol/sample and 2718,76 pmol/sample and 2821,17 pmol/sample | Sph (HeLa cells [1]; 2.5 µM): 4,57 pmol/sample and 3,32 pmol/sample and 3,82 pmol/sample | ratio total SM/Cer (HeLa cells [1]; 2.5 µM): 29,1 and 26,2 and 27,4 | Cer16 (HeLa cells [1]; 5 µM): 29,49 pmol/sample and 35,89 pmol/sample and 33,40 pmol/sample | Cer18 (HeLa cells [1]; 5 µM): 2,38 pmol/sample and 3,05 pmol/sample and 2,58 pmol/sample | Cer20 (HeLa cells [1]; 5 µM): 0,79 pmol/sample and 0,94 pmol/sample and 0,73 pmol/sample | Cer22 (HeLa cells [1]; 5 µM): 4,97 pmol/sample and 6,52 pmol/sample and 6,08 pmol/sample | Cer24 (HeLa cells [1]; 5 µM): 18,36 pmol/sample and 21,85 pmol/sample and 21,93 pmol/sample | Cer24:1 (HeLa cells [1]; 5 µM): 34,90 pmol/sample and 40,79 pmol/sample and 38,77 pmol/sample | Cer total (HeLa cells [1]; 5 µM): 90,90 pmol/sample and 109,04 pmol/sample and 103,49 pmol/sample | S1P (HeLa cells [1]; 5 µM): 0,97 pmol/sample and 0,93 pmol/sample and 0,94 pmol/sample | SM16 (HeLa cells [1]; 5 µM): 1510,97 pmol/sample and 1730,88 pmol/sample and 1785,73 pmol/sample | SM18 (HeLa cells [1]; 5 µM): 45,08 pmol/sample and 52,99 pmol/sample and 49,27 pmol/sample | SM20 (HeLa cells [1]; 5 µM): 14,34 pmol/sample and 17,35 pmol/sample and 16,52 pmol/sample | SM22 (HeLa cells [1]; 5 µM): 86,79 pmol/sample and 107,23 pmol/sample and 102,55 pmol/sample | SM24 (HeLa cells [1]; 5 µM): 143,47 pmol/sample and 171,51 pmol/sample and 164,74 pmol/sample | SM24:1 (HeLa cells [1]; 5 µM): 606,54 pmol/sample and 703,57 pmol/sample and 702,64 pmol/sample | SM total (HeLa cells [1]; 5 µM): 2407,20 pmol/sample and 2783,54 pmol/sample and 2821,45 pmol/sample | Sph (HeLa cells [1]; 5 µM): 3,92 pmol/sample and 3,79 pmol/sample and 3,72 pmol/sample | ratio total SM/Cer (HeLa cells [1]; 5 µM): 26,5 and 25,5 and 27,3 | effect on intracellular distribution of BODIPY-Cer (HeLa cells [2]): only minor effects
